In PubChem BioAssay (NCI):
“And” between values parts separate entries of the source, which are not always exact repeats. Equal entries are not always repeated.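 96-well plates; 48 h exposure; 5 concentrations. Endpoints by linear interpolation between flanking doses. Not reached: highest tested concentration assigned. Here, GI50 denotes the concentration required for 50% inhibition of growth. TGI: concentration producing complete growth inhibition.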

Tests used:
Assay in all cases: DTP human tumour cell line panel, 48 h
CCRF-CEM leukemia = tested on: CCRF-CEM leukemia
COLO 205 colon = tested on: COLO 205 colon
DU-145 prostate = tested on: DU-145 prostate
IGROV1 ovarian = tested on: IGROV1 ovarian
OVCAR-3 ovarian = tested on: OVCAR-3 ovarian
OVCAR-8 ovarian = tested on: OVCAR-8 ovarian
PC-3 prostate = tested on: PC-3 prostate
SF-539 CNS = tested on: SF-539 CNS

Row | Compound | GI50 (CCRF-CEM leukemia) | TGI (CCRF-CEM leukemia) [µM] | GI50 (COLO 205 colon) | TGI (COLO 205 colon) | GI50 (DU-145 prostate) | TGI (DU-145 prostate) [µM] | GI50 (IGROV1 ovarian) [µM] | TGI (IGROV1 ovarian) [µM] | GI50 (OVCAR-3 ovarian) [µM] | TGI (OVCAR-3 ovarian) [µM] | GI50 (OVCAR-8 ovarian) | TGI (OVCAR-8 ovarian) [µM] | GI50 (PC-3 prostate) | TGI (PC-3 prostate) [µM] | GI50 (SF-539 CNS) | TGI (SF-539 CNS)
1 | C#CCNC(=O)CC[C@]1(C)[C@H]2CC[C@@H]3[C@@H]([C@@](C)(O)CCC=C(C)C)CC[C@@]3(C)[C@]2(C)CC[C@H]1C(=C)C | 6.77 µM | 28.7 | 31.9 µM | > 100 µM | 34.8 µM | > 100 | 10.2 | 25.4 | 31.3 | 89.9 | 31.3 µM | > 100 | 17.4 µM | 70 | 17.2 µM | 31.1 µM
2 | C=C1C(=O)O[C@@H]2C[C@@H]1CC[C@@]1(C)O[C@@H]1CC[C@@]1(C)O[C@@H]1CC[C@@]2(C)O | 28.1 µM | > 100 | 14.4 µM | 31 µM | 30.3 µM | > 100 | 21.2 | > 100 | 15.7 | 37.3 | 29 µM | > 100 | 34.9 µM | > 100 | 26.7 µM | 75.9 µM
3 | O=C(O)CCCCn1cnc2c(=S)nc[nH]c21 | – | > 100 | – | > 100 µM | – | > 100 | – | > 100 | – | > 100 | – | > 100 | – | > 100 | – | > 100 µM
4 | CCOC(=O)c1c(C)n2c(=O)cc(C)c3c(OC(C)=O)c(OC(C)=O)cc1c32 | 1.44 µM | 6.45 | 4.62 µM | 18.7 µM | 6.33 µM | 22.2 | 4.78 | 41.9 | 3.49 | > 62.7 | 3.91 µM | > 61.2 | 5.65 µM | > 49.7 | 4.24 µM | 21.1 µM
5 | CN1c2ccccc2S(=O)(=O)n2c(COc3ccc(Cl)cc3)nnc21 | – | > 100 | – | > 100 µM | – | > 100 | – | > 100 | – | > 100 | – | > 100 | – | > 100 | – | > 100 µM
6 | O=C1/C(=C\c2coc3ccccc3c2=O)c2ccccc2N1c1c(Cl)cccc1Cl | 2.08 µM | > 100 | 3.82 µM | 36 µM | 4.71 µM | > 100 | 1.62 | 5.91 | 2.71 | 10.3 | 5.47 µM | 48.8 | 1.35 µM | 30.5 | 3.06 µM | > 100 µM
7 | CC[C@@H](C(=O)[C@@H](C)[C@@H](O)[C@H](C)[C@@H]1O[C@@H]([C@@H](CC)C(=O)O)CC[C@@H]1C)[C@H]1OC2(C=C[C@@H](O)[C@]3(CC[C@@](C)([C@H]4CC[C@](O)(CC)[C@H](C)O4)O3)O2)[C@H](C)C[C@@H]1C (some centres undefined) | 0.285 µM | 10.7 | 0.124 µM | 5.47 µM | 1.58 µM | > 50 | 1.84 | > 50 | 0.101 | 15.1 | 0.823 µM | > 48.3 | 0.0408 µM | > 50 | 0.434 µM | 8.85 µM
8 | NC(=O)C(NC=O)c1ccccc1 (centres undefined) | – | > 100 | – | > 100 µM | – | > 100 | – | > 100 | – | > 100 | – | > 100 | – | > 100 | – | > 100 µM
9 | COc1ccc2c(=O)c3cc([N+](=O)[O-])ccc3n(C)c2c1 | – | > 100 | – | > 100 µM | – | > 100 | – | > 100 | – | > 100 | – | > 100 | – | > 100 | – | > 100 µM
10 | COc1c(CNC(=O)CCl)cc2[nH]c(C)cc2c1CNC(=O)CCl | 2.71 µM | > 100 | 10.6 µM | 27.8 µM | 5.03 µM | 19.7 | 3.49 | > 100 | 3.41 | 13 | 4.73 µM | 60.4 | 12.2 µM | 33.9 | 7.09 µM | 29.8 µM
11 | COc1ccc(-c2nn(-c3cccc(NC(=O)Nc4cc(C(F)(F)F)cc(C(F)(F)F)c4)c3)cc2-c2ccncc2)cc1Cl | 0.962 µM | 3.11 | 0.894 µM | 1.74 µM | 1.96 µM | 9.76 | 2.08 | 31.6 | 0.68 | 4.56 | 1.13 µM | 22.5 | 0.448 µM | 2.92 | 0.88 µM | 2.25 µM
12 | CNc1ccc(-c2cc(=O)oc3ccc(Cl)cc23)cc1 | 0.146 µM and 0.0494 µM | > 100 | 0.278 µM and 0.201 µM | 1.17 µM and 1.27 µM | 0.183 µM and 0.155 µM | – | – | > 100 | 0.0342 | 0.27 | 0.601 µM and 0.197 µM | > 100 | 0.226 µM and 0.064 µM | > 100 | 0.0527 µM and 0.0255 µM | 0.481 µM and 0.109 µM
13 | O=C1c2ccccc2-c2c1c1ccccc1c(=O)n2CCCN1CCN(CCCn2c3c(c4ccccc4c2=O)C(=O)c2ccccc2-3)CC1 | 13.8 µM | > 100 | > 100 µM | > 100 µM | 23.7 µM | > 86.4 | > 35 | > 100 | > 100 | > 100 | 15.6 µM | > 100 | > 100 µM | > 100 | > 70.6 µM | > 100 µM
